Laboratory results from patent US12084521B2, “TLR9 inhibitors to suppress inflammatory response to pathogens” (University Of Maryland, Baltimore, priority 2018, dated 2024).
“Also recorded” adds a separate entry of the source.

Legend:
[1] = molecular target: T1, TIRAP TIR (Homo sapiens, UniProt P58753); experiment: FLIM/FRET binding of Cy3-labeled peptides to Cer-fused TIR in HeLa cells
T1 construct: fused with TLR9 TIR or TIRAP TIR; expressed in transfected cells; host or cells: HeLa
Outline: (§1)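 HeLa cells transiently expressing Cerulean-fused TIR domains were exposed to Cy3-labeled peptides at various concentrations for 1 h, then fixed. Donor lifetimes came from FLIM with single/bi-exponential fits, and FRET efficiency was calculated as E=1−τDA/τD from whole-image average lifetimes.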

[2] = molecular target: T2, TLR9 TIR (Homo sapiens, UniProt Q9NR96); experiment: as above
T2 construct: expressed in transfected cells; host or cells: HeLa
T2 sequence (Q9NR96 868-1013 limits assumed): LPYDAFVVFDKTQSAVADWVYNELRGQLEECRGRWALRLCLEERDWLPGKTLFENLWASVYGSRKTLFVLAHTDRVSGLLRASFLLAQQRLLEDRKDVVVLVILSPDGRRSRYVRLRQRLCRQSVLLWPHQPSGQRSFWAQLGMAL
Outline: as §1

[3] = molecular target: T3, MyD88 TIR (Homo sapiens, UniProt Q99836); experiment: as above
T3 construct: expressed in transfected cells; host or cells: HeLa
T3 sequence (Q99836 159-293 limits assumed): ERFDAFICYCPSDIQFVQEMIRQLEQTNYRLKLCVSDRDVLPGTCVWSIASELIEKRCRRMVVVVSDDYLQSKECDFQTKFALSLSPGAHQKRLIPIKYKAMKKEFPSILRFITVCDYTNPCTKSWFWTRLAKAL
Outline: as §1

[4] = test system: TLR9 signaling; experiment: ODN 1668-induced cytokine mRNA expression in BMDM (quantitative real time PCR); format: cell-based, mouse; conditions: BMDM; for inhibition of TLR9 signaling (ODN 1668-induced cytokine mRNA, overall): peptide 10, 20 or 40 μM, ODN 1668 1 μM
Method: The cDNA obtained was amplified with gene-specific primers for mouse HPRT, TNFα, IL-10, IL-12-p40, or IL-6 and Fast SYBR Green™ master mix (Applied Biosystemsm) as previously described.
Mouse BMDMs were incubated in the presence of a 10, 20 or 40 μM decoy peptide for 30 minutes prior to stimulation with ODN 1668 (1 μM). […] Data represent the means±SEM of at least three independent experiments. The statistical significance of changes in cytokine mRNA was determined by a one-way ANOVA test; *p<0.001. Peptides 9R3 and 9R34 have overlapping sequences (see Table 1).
To investigate inhibition of TLR9 signaling by 9R34 analogues, the following work was performed. Mouse BMDMs were incubated in the presence of a 10, 20 or 40 μM decoy peptide for 30 minutes prior to stimulation with ODN 1668 (1 μM). Cytokine mRNA expression was measured 1 hour after ODN 1668 challenge and normalized to the expression of HPRT. See also Table 1. Data represent means±SEM of at least three independent experiments.

[5] = peptide 10, 20 or 40 μM 30 min before ODN 1668 (1 μM), 1 hour, normalized to HPRT

T1 sequence (P58753 84-213 limits assumed): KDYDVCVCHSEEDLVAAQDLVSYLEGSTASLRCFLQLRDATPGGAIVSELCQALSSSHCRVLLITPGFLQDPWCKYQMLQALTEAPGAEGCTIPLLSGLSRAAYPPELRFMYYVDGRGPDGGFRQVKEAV

Sequence	binding to TIRAP TIR (FLIM summary) [1]	binding to TLR9 TIR (FLIM summary) [2]	interaction with MyD88 TIR (FLIM summary) [3]	inhibition of TLR9 signaling (ODN 1668-induced cytokine mRNA, overall) [4]	TNFα mRNA expression ([4]; peptide 10, 20 or 40 μM 30 min before ODN 1668 (1 μM), 1 hour after stimulation, normalized to HPRT)	IL-10 mRNA expression [4, 5]	IL-12-p40 mRNA expression [4, 5]
ALRLCLEERD [Peptide 9R34-ΔN]	bind	bind	did not interact	as potent as the parent peptide; also recorded: inhibited TLR9 signaling more potently than 9R3			
RSFWAQLGMALTRD (Synthetic peptide 9R11)	bind	bind	interacted with the MyD88 TIR, but with a lower affinity	inhibit TLR9 signaling	significantly suppressed	significantly suppressed	significantly suppressed
